For the experiment, the system named is Anaesthetised Guinea Pigs. Kind of experiment: Test A: Primary electrophysiological effects in anaesthetised guinea pigs. The class given is in vivo, guinea pig. To be noted: index of class III electrophysiological potency; MAP duration at 75 percent repolarization during pacing; intravenous infusion, cumulative doses; derived from mean dose-response curve. On the procedure:
Primary Electrophysiological Effects In Anaesthetised Guinea Pigs
Guinea pigs weighing between 660 and 1100 g were used. The animals were housed for at least one week before the experiment and had free access to food and tap water during that period.
Anaesthesia was induced by an intraperitoneal injection of pentobarbital (40 to 50 mg/kg) and catheters were introduced into one carotid artery (for blood pressure recording and blood sampling) and into one jugular vein (for drug infusions). Needle electrodes were placed on the limbs for recording of ECGs (lead II). A thermistor was placed in the rectum and the animal was placed on a heating pad, set to a rectal temperature of between 37.5 and 38.5° C. […]
The left ventricular epicardium was exposed by a left-sided thoracotomy, and a custom-designed suction electrode for recording of the monophasic action potential (MAP) was applied to the left ventricular free wall. The electrode was kept in position as long as an acceptable signal could be recorded, otherwise it was moved to a new position. […]
The blood pressure, the MAP signal and the lead II ECG were recorded on a Mingograph ink-jet recorder (Siemens-Elema, Sweden). […] The signals were processed using a custom-made program developed for acquisition and analysis of physiological signals measured in experimental animals (see Axenborg and Hirsch, Comput. Methods Programs Biomed. 41, 55 (1993)). […]

Regarding `CC(C)(C)C(=O)CN1CC2CN(CCCNc3ccc(C#N)cc3)CC(C1)O2.O=S(=O)(O)c1ccccc1` [Compound A, 4-({3-[7-(3,3-dimethyl-2-oxobutyl)-9-oxa-3,7-diazabicyclo[3.3.1]non-3-yl]propyl}amino)benzonitrile, benzenesulfonic acid salt], the “D10 (cumulative dose prolonging the MAP duration by 10% from the baseline)” value came to 6.7.

Source of the values: patent publication US20040039199A1, “Oxabispidine compound useful in the treatment of cardiac arrhythmias” (priority 2000, published 2004).
